Results taken from ChEMBL document CHEMBL4616629, “Diosmin Treats Lipopolysaccharide-Induced Inflammatory Pain and Peritonitis by Blocking NF-κB Activation in Mice” (J Nat Prod, 2020).
Calls of active or inactive are those of the source.

Key:
[1] = tested on: Mus musculus; assay: Analgesic activity in LPS-induced Swiss mouse assessed as increase in right/left paw ratio at 30 mg/kg, po pretreated for 1 hr followed by LPS-stimulation and measured after 1 to 5 hrs by static weight bearing assay; format: functional, organism-based
[2] = tested on: Mus musculus; assay: Antioxidant activity in Swiss mouse model of LPS-induced inflammatory pain assessed as reduction in lipid peroxidation in hind paw skin at mg/kg, po pretreated for 1 hr followed by LPS-stimulation and measured after 3 hrs by colorimetric based TBARS assay; format: functional, organism-based
[3] = tested on: Mus musculus; assay: Antioxidant activity in Swiss mouse model of LPS-induced inflammatory pain assessed as increase in GSH level in hind paw skin at mg/kg, po pretreated for 1 hr followed by LPS-stimulation and measured after 3 hrs by colorimetric based assay; format: functional, organism-based
[4] = molecular target: Transcription factor p65 (Mus musculus) (UniProt Q04207); assay: Inhibition of NFkappaB in Swiss mouse peritoneal exudates model of LPS-induced inflammatory pain assessed as reduction area of colocalization between phosphorylated NFkappaB p65 and DAPI at 30 mg/kg, po pretreated for 1 hr followed by LPS-stimulation and measured after 3 hrs by Alexa Fluor 647 staining based immunofluorescence assay; format: organism-based
[5] = tested on: Mus musculus; assay: Analgesic activity in Swiss mouse model of LPS-induced inflammatory pain assessed as reduction in thermal hyperalgesia at 30 to 100 mg/kg, po pretreated for 1 hr followed by LPS-stimulation and measured after 1 to 5 hrs by hot plate technique; format: functional, organism-based
[6] = tested on: Mus musculus; assay: Antiinflammatory activity against Swiss mouse model of LPS-induced inflammatory pain assessed as decrease in IL6 level in peritoneal cavity at 30 mg/kg, po pretreated for 1 hr followed by LPS-stimulation and measured after 3 hrs by ELISA; format: functional, organism-based
[7] = tested on: Mus musculus; assay: Antiinflammatory activity against Swiss mouse model of LPS-induced peritonitis assessed as decrease in leukocyte recruitment in peritoneal cavity by measuring reduction in polymorphonuclear at 30 to 100 mg/kg, po pretreated for 1 hr followed by LPS-stimulation and measured after 3 hrs by light microscopic based Neubauer chamber cell counting method; format: functional, organism-based
[8] = tested on: Mus musculus; assay: Analgesic activity in LPS-induced C57BL/6 mouse harboring LysM-eGFP assessed as decrease in neutrophil recruitment in hind paw skin by measuring fluorescence at 30 mg/kg, po pretreated for 1 hr followed by LPS-stimulation and measured after 5 hrs by confocal microscopic method; format: functional, organism-based
[9] = tested on: Mus musculus; assay: Antiinflammatory activity against Swiss mouse model of LPS-induced peritonitis assessed as decrease in leukocyte recruitment in peritoneal cavity by measuring reduction in total leukocytes at 30 to 100 mg/kg, po pretreated for 1 hr followed by LPS-stimulation and measured after 3 hrs by light microscopic based Neubauer chamber cell counting method; format: functional, organism-based
[10] = tested on: Mus musculus; assay: Antiinflammatory activity against Swiss mouse model of LPS-induced peritonitis assessed as decrease in leukocyte recruitment in peritoneal cavity by measuring reduction in mononuclear cells at 30 to 100 mg/kg, po pretreated for 1 hr followed by LPS-stimulation and measured after 3 hrs by light microscopic based Neubauer chamber cell counting method; format: functional, organism-based
[11] = tested on: Mus musculus; assay: Antioxidant activity in Swiss mouse model of LPS-induced inflammatory pain assessed as ABTS radical scavenging activity in hind paw skin at mg/kg, po pretreated for 1 hr followed by LPS-stimulation and measured after 3 hrs by colorimetric based assay; format: functional, organism-based
[12] = tested on: Mus musculus; assay: Antiinflammatory activity against Swiss mouse model of LPS-induced peritonitis assessed as decrease in NBT-positive leukocytes in peritoneal exudate at 30 mg/kg, po pretreated for 1 hr followed by LPS-stimulation and measured after 3 hrs by light microscopic based cell counting method; format: functional, organism-based
[13] = molecular target: Transcription factor p65 (Mus musculus) (UniProt Q04207); assay: Inhibition of NFkappaB in Swiss mouse peritoneal exudates model of LPS-induced inflammatory pain assessed as ratio of phosphorylated NFkappaB p65 at (Ser536 residue) to total NFkappaB p65 at 30 mg/kg, po pretreated for 1 hr followed by LPS-stimulation and measured after 3 hrs by ELISA; format: organism-based
[14] = tested on: Mus musculus; assay: Antiinflammatory activity against Swiss mouse model of LPS-induced inflammatory pain assessed as decrease in IL1beta level in peritoneal cavity at 30 mg/kg, po pretreated for 1 hr followed by LPS-stimulation and measured after 3 hrs by ELISA; format: functional, organism-based
[15] = tested on: Mus musculus; assay: Antiinflammatory activity against Swiss mouse model of LPS-induced inflammatory pain assessed as decrease in IL6 level in hind paw skin at 30 mg/kg, po pretreated for 1 hr followed by LPS-stimulation and measured after 3 hrs by ELISA; format: functional, organism-based
[16] = tested on: Mus musculus; assay: Inhibition of NFkappaB in Swiss mouse peritoneal exudates model of LPS-induced inflammatory pain at 30 mg/kg, po pretreated for 1 hr followed by LPS-stimulation and measured after 3 hrs by Alexa Fluor 647 staining based immunofluorescence assay; format: organism-based
[17] = tested on: Mus musculus; assay: Antiinflammatory activity against Swiss mouse model of LPS-induced inflammatory pain assessed as decrease in TNFalpha level in peritoneal cavity at 30 mg/kg, po pretreated for 1 hr followed by LPS-stimulation and measured after 3 hrs by ELISA; format: functional, organism-based
[18] = tested on: Mus musculus; assay: Antioxidant activity in Swiss mouse model of LPS-induced inflammatory pain assessed as total ferric ion reducing activity in hind paw skin at mg/kg, po pretreated for 1 hr followed by LPS-stimulation and measured after 3 hrs by colorimetric based FRAP assay; format: functional, organism-based
[19] = tested on: Mus musculus; assay: Antiinflammatory activity against Swiss mouse model of LPS-induced inflammatory pain assessed as decrease in IL1beta level in hind paw skin at 30 mg/kg, po pretreated for 1 hr followed by LPS-stimulation and measured after 3 hrs by ELISA; format: functional, organism-based
[20] = tested on: Mus musculus; assay: Analgesic activity in LPS-induced Swiss mouse assessed as decrease in neutrophil recruitment in hind paw skin by measuring MPO activity at 10 to 100 mg/kg, po pretreated for 1 hr followed by LPS-stimulation and measured after 5 hrs by colorimetric assay; format: functional, organism-based
[21] = tested on: Mus musculus; assay: Antioxidant activity in Swiss mouse model of LPS-induced inflammatory pain assessed as decrease in superoxide production in hind paw skin at mg/kg, po pretreated for 1 hr followed by LPS-stimulation and measured after 3 hrs by colorimetric based NBT assay; format: functional, organism-based
[22] = tested on: Mus musculus; assay: Antiinflammatory activity against Swiss mouse model of LPS-induced peritonitis assessed as decrease in superoxide anion production in peritoneal wash at 30 mg/kg, po pretreated for 1 hr followed by LPS-stimulation and measured after 3 hrs by NBT based spectrophotometric assay; format: functional, organism-based
[23] = tested on: Mus musculus; assay: Antiinflammatory activity against Swiss mouse model of LPS-induced peritonitis assessed as decrease in total ROS level at 30 mg/kg, po pretreated for 1 hr followed by LPS-stimulation and measured after 3 hrs by H2DCF-DA staining based confocal microscopic method; format: functional, organism-based
[24] = tested on: Mus musculus; assay: Antiinflammatory activity against Swiss mouse model of LPS-induced inflammatory pain assessed as decrease in TNFalpha level in hind paw skin at 30 mg/kg, po pretreated for 1 hr followed by LPS-stimulation and measured after 3 hrs by ELISA; format: functional, organism-based
[25] = tested on: Mus musculus; assay: Analgesic activity in Swiss mouse model of LPS-induced inflammatory pain assessed as reduction in mechanical hyperalgesia at 30 to 100 mg/kg, po pretreated for 1 hr followed by LPS-stimulation and measured after 1 to 5 hrs by Von Frey test; format: functional, organism-based

Chain of Transcription factor p65 (Mus musculus) (Q04207 whole entry): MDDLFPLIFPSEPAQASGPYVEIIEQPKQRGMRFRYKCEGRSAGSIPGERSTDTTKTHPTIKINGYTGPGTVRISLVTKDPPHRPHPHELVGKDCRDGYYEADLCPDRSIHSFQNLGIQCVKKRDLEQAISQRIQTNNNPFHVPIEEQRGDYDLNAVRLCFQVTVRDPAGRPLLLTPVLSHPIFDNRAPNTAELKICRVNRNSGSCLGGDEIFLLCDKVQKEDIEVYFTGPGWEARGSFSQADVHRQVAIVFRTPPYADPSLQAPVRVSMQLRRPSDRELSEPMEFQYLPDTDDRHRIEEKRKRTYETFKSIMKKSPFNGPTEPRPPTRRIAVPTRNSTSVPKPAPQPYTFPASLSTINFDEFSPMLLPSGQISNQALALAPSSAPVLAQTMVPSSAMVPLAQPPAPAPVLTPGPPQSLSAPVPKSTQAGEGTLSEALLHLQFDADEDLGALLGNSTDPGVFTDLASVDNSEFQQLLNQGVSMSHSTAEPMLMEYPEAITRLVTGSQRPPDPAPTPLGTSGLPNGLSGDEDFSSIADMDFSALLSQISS

COc1ccc(-c2cc(=O)c3c(O)cc(O[C@@H]4O[C@H](CO[C@@H]5O[C@@H](C)[C@H](O)[C@@H](O)[C@H]5O)[C@@H](O)[C@H](O)[C@H]4O)cc3o2)cc1O
active: Activity [1] | Activity [2] | Activity [3] | inhibition [4] | Activity [5] | Activity [6] | Activity [7] | Activity [8] | Activity [9] | Activity [10] | Activity [11] | Activity [12] | inhibition [13] | Activity [14] | Activity [15] | inhibition [16] | Activity [17] | Activity [18] | Activity [19] | Activity [20] | Activity [21] | Activity [22] | Activity [23] | Activity [24] | Activity [25]
